# Values of other authors, collected in patent publication US11701355B2, “Levosimendan for treating pulmonary hypertension with heart failure with preserved ejection fraction (PH-HFpEF)” (Tenax Therapeutics, Inc., priority 2019, dated 2023).
# Tests used:
# patients with PH-HFpEF = conditions: in vivo; cited from earlier work
# patients with HFpEF = conditions: long term treatment, 216 patients; cited from earlier work
# PH-HFpEF patients [1] = conditions: after 12 weeks, 52 patients; cited from earlier work
# [2] = tested on: patients with left heart disease; conditions: in vivo; cited from earlier work
# PH-HFpEF patients [3] = conditions: acute; cited from earlier work
# HFpEF patients [4] = conditions: in vivo; cited from earlier work
# HFpEF patients [5] = conditions: inhaled 3 times a day for 4 weeks; cited from earlier work
# [6] = tested on: phosphodiesterase-3 (PDE3); conditions: in vitro; cited from earlier work
# [7] = tested on: whole cardiomyocytes and isolated contractile apparatus preparations; conditions: cited from earlier work
# PDE4 = conditions: in vitro; cited from earlier work
# [8] = heart failure subjects; cited from earlier work
# HFpEF patients [9] = conditions: in vivo; cited from earlier work; remark: listed apart in the source
molecule,measurement,setting,value
COc1ccccc1Oc1c(NS(=O)(=O)c2ccc(C(C)(C)C)cc2)nc(-c2ncccn2)nc1OCCO [bosentan],clinical outcomes compared with placebo,patients with PH-HFpEF,worse clinical outcomes
same,six minute walk test or echocardiographic evaluation of pulmonary hypertension,patients with PH-HFpEF,no improvements
CCCc1nn(C)c2c(=O)[nH]c(-c3cc(S(=O)(=O)N4CCN(C)CC4)ccc3OCC)nc12 [sildenafil],"six-minute walk time, clinical status, or quality of life",patients with HFpEF,failed to improve
same,mPAP,PH-HFpEF patients [1],no change
CCCNS(=O)(=O)Nc1ncnc(OCCOc2ncc(Br)cn2)c1-c1ccc(Br)cc1 [macitentan],"hemodynamic parameters (pulmonary vascular resistance, mean pulmonary arterial pressure, pulmonary artery wedge pressure)",[2],no change
COC(=O)N(C)c1c(N)nc(-c2nn(Cc3ccccc3F)c3ncccc23)nc1N [riociguat],TPG or pulmonary vascular resistance,PH-HFpEF patients [3],no change
same,"primary outcome, mean pulmonary arterial pressure",PH-HFpEF patients [3],not achieved
sacubitril/valsartan,reduction in the primary endpoint,HFpEF patients [4],not statistically significant
O=NO [sodium nitrite],primary endpoint of peak oxygen consumption during cardiopulmonary exercise; secondary endpoints,HFpEF patients [5],unable to demonstrate any improvement
"CC(=O)Nc1ccc(C2=NNC(=O)C[C@H]2C)cc1 [OR-1896, (R)-N-(4-(4-methyl-6-oxo-1,4,5,6-tetrahydropyridazin-3-yl)phenyl) acetamide]",potency in the inhibition of PDE3 compared with levosimendan,[6],profoundly less potent
same,inotropic effects compared with levosimendan,[7],equipotent to levosimendan
same,potency in the inhibition of PDE4 compared with levosimendan,PDE4,profoundly less potent
same,half-life,[8],70 to 80 h
COC(=O)Nc1c(N)nc(-c2nn(Cc3ccccc3F)c3ncc(F)cc23)nc1N [vericiguat],primary endpoints,HFpEF patients [9],no significant changes
